Laboratory results published in PubChem BioAssay (NCI).
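Compound exposure: 48 hours, 5 concentrations, 96-well plates. Here, GI50 denotes the concentration required for 50% inhibition of growth. The concentration for full growth arrest is given as TGI.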

What was measured:
Assay in all cases: DTP human tumour cell line panel, 48 h
T-47D breast = system: T-47D breast
LOX IMVI melanoma = system: LOX IMVI melanoma
CCRF-CEM leukemia = system: CCRF-CEM leukemia
HL-60(TB) leukemia = system: HL-60(TB) leukemia
UACC-257 melanoma = system: UACC-257 melanoma
PC-3 prostate = system: PC-3 prostate
CAKI-1 renal = system: CAKI-1 renal
MALME-3M melanoma = system: MALME-3M melanoma
OVCAR-5 ovarian = system: OVCAR-5 ovarian
K-562 leukemia = system: K-562 leukemia

Structure (SMILES) | GI50 (T-47D breast) [µM] | TGI (T-47D breast) [µM] | GI50 (LOX IMVI melanoma) [µM] | TGI (LOX IMVI melanoma) [µM] | GI50 (CCRF-CEM leukemia) [µM] | TGI (CCRF-CEM leukemia) [µM] | GI50 (HL-60(TB) leukemia) [µM] | TGI (HL-60(TB) leukemia) [µM] | GI50 (UACC-257 melanoma) [µM] | TGI (UACC-257 melanoma) [µM] | GI50 (PC-3 prostate) [µM] | TGI (PC-3 prostate) [µM] | GI50 (CAKI-1 renal) [µM] | TGI (CAKI-1 renal) [µM] | GI50 (MALME-3M melanoma) [µM] | TGI (MALME-3M melanoma) [µM] | GI50 (OVCAR-5 ovarian) [µM] | TGI (OVCAR-5 ovarian) [µM] | GI50 (K-562 leukemia) [µM] | TGI (K-562 leukemia) [µM]
Nc1ncnc2c1ncn2Cc1ccc(C23CC4CC(CC(C4)C2)C3)c(OCc2cc(F)c(F)cc2F)c1 | > 100 | > 100 | 5.36 | > 100 | 2.4 | 6.84 | 3.06 | 10.7 | 2.33 | 7.4 | 2.17 | 10.9 | 2.32 | 6.9 | 4.59 | > 100 | 68.6 | > 100 | – | –
COc1cc2cc(C(=O)CCC(=O)O)sc2cc1OC | > 100 | > 100 | > 100 | > 100 | > 100 | > 100 | 28.3 | > 100 | 33.4 | > 100 | > 100 | > 100 | > 100 | > 100 | > 100 | > 100 | > 100 | > 100 | > 100 | > 100
Cn1ccnc1C(=O)/C=C/c1ccc(C(=O)Nc2ccc(S(F)(F)(F)(F)F)cc2)cc1 | 0.923 | > 14.3 | 1.01 | 3.25 | 0.738 | > 14.3 | 0.945 | 5.49 | 2.18 | > 14.3 | 1.9 | > 14.3 | 2.1 | > 14.3 | 5.76 | > 14.3 | 3.3 | > 14.3 | 0.385 | > 14.3
CCCCOc1ccc(NC(=O)n2nc(N)c3ccccc32)cc1 | 17 | > 88.2 | 11.6 | 24.2 | 0.0755 | 4.68 | 0.813 | 21 | 24.8 | 73.5 | 13.9 | 54.1 | 29.1 | 71.9 | 18.9 | 48.4 | 21.9 | 68.4 | 11.5 | 50.4
CCOC(=O)/C(=N\OC)C(O)C(F)(F)F (stereo not drawn) | – | > 100 | – | > 100 | – | > 100 | – | > 100 | – | > 100 | – | > 100 | – | > 100 | – | > 100 | – | > 100 | – | > 100
CC(=O)N1N=C(c2ccc(Nc3nc(Nc4ccc(Cl)cc4)nc(Nc4ccc(Cl)cc4)n3)cc2)CC1c1ccc([N+](=O)[O-])cc1 (stereo not drawn) | 1.74 | 7.2 | 5.66 | > 47.1 | 2.92 | > 32.2 | 6.15 | 24.4 | 11.4 | > 72.4 | 2.92 | > 69.4 | 6.1 | 32.5 | 14.7 | 71.7 | 19.4 | > 100 | 2.65 | 28.7
CCOc1ccc(-c2cnnn2-c2nonc2-n2cccc2)cc1 | 0.466 | > 100 | 0.46 | > 100 | 0.296 | > 100 | 0.309 | 13.4 | 0.449 | > 69 | 0.365 | > 100 | 0.352 | > 100 | 0.383 | > 78.3 | 1.08 | > 100 | 0.0638 | > 100
CC(=O)Nc1ccc(/C=C/C(=O)c2ccccc2)cc1 | 13.8 | 42.3 | 4.71 | 18.9 | 3.36 | 16.6 | 24.8 | 81.2 | 20.7 | 54.7 | 23.2 | 66.2 | 3.77 | 16.2 | 16.7 | 36.9 | 18.3 | 45.3 | 3.28 | > 100
Cn1cc(C2=C(c3cccc(N)c3)C(=O)NC2=O)c2ccccc21 | 14.3 | > 25 | 8.76 | > 25 | 11.2 | > 25 | 11.4 | > 25 | > 25 | > 25 | 14.8 | > 25 | 13 | > 25 | > 25 | > 25 | > 25 | > 25 | 8.86 | > 25
CCCCCc1nc2c(c3c1CCCC3)CCCC2 | 6.2 | 24.9 | 13.4 | 27 | 11.1 | 43.2 | 5.8 | 29.4 | 9.7 | 31.6 | 8.04 | 31.1 | 3.98 | 24 | 11.3 | 25.7 | 9.08 | 27.4 | 4.76 | 27.9
COC(=O)C1=C(C)NC(C)=C(C(=O)OC)C1/C=C(\Cl)c1ccc(Cl)c(Cl)c1 | 20.2 | 50.1 | 11.4 | 23.5 | 5.55 | 31.6 | 11.9 | 38.4 | 18 | 36.1 | 10.8 | 23.1 | 13.7 | 27.2 | 17.5 | 35.9 | 16.8 | 30.4 | 10.6 | 40.3
O=C(Nc1ccccc1)c1nn(-c2cc(S(=O)(=O)O)c([N+](=O)[O-])cc2Cl)[n+](-c2cc(S(=O)(=O)[O-])c([N+](=O)[O-])cc2Cl)n1 | – | > 100 | – | > 100 | – | > 100 | – | > 100 | – | > 100 | – | > 100 | – | > 100 | – | > 100 | – | > 100 | – | > 100
COc1cc(-c2nc3sccn3c2-c2ccnc(NCCNS(=O)(=O)c3ccc(Cl)cc3)n2)ccc1F | 1.44 | 8.46 | 3.39 | > 100 | 0.48 | > 100 | 3.74 | > 100 | 4.47 | > 100 | 0.577 | > 100 | 4.89 | > 100 | 3.35 | > 100 | 55 | > 100 | 2.76 | > 100
